Results from patent publication US6476019B1, “Spirocyclic ligands for sigma receptors, and libraries and methods of use thereof” (Sepracor Inc., priority 1999, dated 2002).

Assays:
human serotonin 5-HT2A = human serotonin 5-HT2A (Homo sapiens, UniProt P28223); experiment: Behavioral receptor assays: 5-HT2A; format: binding; conditions: read-out: Receptors (IC50) 5-HT2A
Experimental: (§1) Various compounds of the present invention (19, 31, and 32) were evaluated in a group of assays based on mammalian cellular receptors associated with behavior. The group consisted of assays base on human dopamine D1, D2L, D3, D4.2, D4.4, D4.7, and D5 receptors, and the transporter; human serotonin 5-HT1A, 5-HT1B, 5-HT1D, 5-HT2A, 5-HT2B, 5-HT2C, 5-HT3, 5-HT5A, 5-HT6, and 5-HT7 receptors, and the human serotonin transporter; guinea pig 5-HT4 and sigma-1 receptors; rat sigma-2 and muscarinic receptors; and human NK1-3 receptors. The following table presents a subset of the results of these assays.

human serotonin 5-HT2B = human serotonin 5-HT2B (Homo sapiens, UniProt P41595); experiment: Behavioral receptor assays: 5-HT2B; format: binding; conditions: read-out: Receptors (IC50) 5-HT2B
Experimental: as §1

Male rats = experiment: Elevated plus maze test (anxiolytic effects); format: in vivo; conditions: rat, doses 1 mg/kg and 5 mg/kg
Excerpt: In the present study, 32 was investigated on measures of anxiety in an elevated plus-maze test in the rat. In this test, an anxiolytic effect is defined as an increase in the percentage of total entries made onto the open arms and an increase in the percentage of time spent on the open arms of the elevated plus-maze. Anxiogenic drugs reduce both of these measures.
Male rats (Iffa Crédo, St Germain/l'Arbresle, France), weight 220−320 g ate the beginning of the experiment were housed 2 per cage on a 12 h/12 h light dark cycle (lights on at 7.00 a.m.) at a room temperature of 21±2° C. for a minimum of 5 days before testing. All animals had access to commercial food and tap water ad libitum.
The elevated plus maze test consists of four arms connected by a central square, the arms are all horizontal and at 90° […]. angle from each other making the shape of a plus sign. The maze is raised to a height of 50 cm from the ground. […] These arms are therefore referred to as the enclosed arms, respectively.
Each test was started by placing the rat at the intersect of the maze arms facing into one of the enclosed arms. The rat had free access to all 4 arms for the period of 5 min. The number and duration of entries into each arm during this time were scored manually.
Undruged rats typically spend 30-60 seconds on the open arms and about 3 minutes on the closed arms. […]

Male Wistar rats = experiment: MK-801-Induced Psychosis Model; format: in vivo, rat; conditions: rat, 1 mg/kg i.p.; MK-801 0.3 mg/kg i.p.
Excerpt: The non-competitive NMDA receptor antagonist MK-801 induces stereotypies and hyperactivity in rodents (1) by interacting with the NMDA receptor-associated ion channel. Phencyclidine, which also interferes with the NMDA receptor, produces psychotic effects in humans similar in many respects to schizophrenia. […] Therefore the MK-801-induced activity and stereotypies in rats may represent an appropriate animal model to test the potential efficacy of antipsychotic drugs.
Male Wistar rats (Iffa Crédo, St Germain/l'Arbresle, France), weight 250-300 g were housed 2 per cage on a 12 h/12 h light dark cycle (lights on at 7.00 a.m.) at a room temperature of 21±2° C. for a minimum of 5 days before testing. All animals had access to commercial food and tap water ad libitum.
On the day of the experiment, rats were treated with either reference drug vehicle, the reference drugs haloperidol or clozapine the test compound vehicle or test compounds. After administration, the rats were returned to their home cages for 15 minutes. […] The remaining rats treated with placebo received a second injection of vehicle. The standard injection volume was 2.0 ml/kg. After 10 minutes in the home cages, rats were transferred to the test box (Plexiglas, 29×12×12 cm), 5 minutes before the assessment for accomodation. The test box was cleaned with 70% ethanol before each assessment. Stereotypies, defined as wall-contacts with the snout, and locomotion, defined as turn-rounds of 180°, were assessed during 5 minute periods.

Human Adrenergic β3 = Human Adrenergic β3 (Homo sapiens, UniProt P13945); experiment: Additional receptor assay; format: binding
Experimental: (§2) Results of Additional Receptor Assays Performed on Compound 31 at a Concentration of 10 μM

Human Orphanin (ORL1) = Human Orphanin (ORL1) (Homo sapiens, UniProt P41146); experiment: Additional receptor assay; format: binding
Experimental: as §2

[1] = target: Rat GABAA Benzodiazepine (Peripheral) (Rattus norvegicus, UniProt P16257); experiment: Additional receptor assay; format: binding
Experimental: as §2

[2] = system: Rat GABAA Benzodiazepine (Central); experiment: Additional receptor assay; format: binding; conditions: 10 μM
Experimental: as §2

Rat GABAA Agonist Site = experiment: Additional receptor assay; format: binding; conditions: 10 μM
Experimental: as §2

Rat GABAB = Rat GABAB (Rattus norvegicus, UniProt Q9Z0U4); experiment: Additional receptor assay; format: binding; conditions: 10 μM
Experimental: as §2

[3] = target: Rat Glutamate, NMDA (Glycine) (Rattus norvegicus, UniProt P35439); experiment: Additional receptor assay; format: binding
Experimental: as §2

Human Adrenergic β1 = Human Adrenergic β1 (Homo sapiens, UniProt P08588); experiment: Additional receptor assay; format: binding
Experimental: as §2

Rat GABAA Transporter = experiment: Additional receptor assay; format: binding; conditions: 10 μM
Experimental: as §2

[4] = system: Rat Glutamate, NMDA (Phencyclidine); experiment: Additional receptor assay; format: binding; conditions: 10 μM
Experimental: as §2

[5] = system: Rat GABAA Chloride Channel; experiment: Additional receptor assay; format: binding; conditions: 10 μM
Experimental: as §2

Human Adrenergic α2C = Human Adrenergic α2C (Homo sapiens, UniProt P18825); experiment: Additional receptor assay; format: binding
Experimental: as §2

[6] = system: Rat Glutamate, NMDA (Polyamine); experiment: Additional receptor assay; format: binding; conditions: 10 μM
Experimental: as §2

Human Adrenergic β2 = Human Adrenergic β2 (Homo sapiens, UniProt P07550); experiment: Additional receptor assay; format: binding
Experimental: as §2

Rat Adrenergic α1 = experiment: Additional receptor assay; format: binding; conditions: 10 μM
Experimental: as §2

Human Adrenergic α2A = Human Adrenergic α2A (Homo sapiens, UniProt P08913); experiment: Additional receptor assay; format: binding
Experimental: as §2

[7] = system: Rat Glutamate, NMDA (Agonist); experiment: Additional receptor assay; format: binding; conditions: 10 μM
Experimental: as §2

Chain of Human Adrenergic β1 (P08588 whole entry): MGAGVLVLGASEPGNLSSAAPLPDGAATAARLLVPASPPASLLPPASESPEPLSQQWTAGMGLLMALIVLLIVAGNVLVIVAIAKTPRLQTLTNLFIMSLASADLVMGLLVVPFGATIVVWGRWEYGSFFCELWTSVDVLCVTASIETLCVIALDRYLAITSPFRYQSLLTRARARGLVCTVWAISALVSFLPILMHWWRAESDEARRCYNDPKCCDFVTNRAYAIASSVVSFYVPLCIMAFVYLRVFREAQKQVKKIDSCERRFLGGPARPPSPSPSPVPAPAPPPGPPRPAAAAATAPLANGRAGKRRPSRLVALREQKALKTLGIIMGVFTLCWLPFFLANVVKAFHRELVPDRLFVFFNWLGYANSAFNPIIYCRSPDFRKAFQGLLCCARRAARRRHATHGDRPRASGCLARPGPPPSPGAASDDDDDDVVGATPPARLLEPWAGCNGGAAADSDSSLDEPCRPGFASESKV
Chain of Human Adrenergic β3 (P13945 whole entry): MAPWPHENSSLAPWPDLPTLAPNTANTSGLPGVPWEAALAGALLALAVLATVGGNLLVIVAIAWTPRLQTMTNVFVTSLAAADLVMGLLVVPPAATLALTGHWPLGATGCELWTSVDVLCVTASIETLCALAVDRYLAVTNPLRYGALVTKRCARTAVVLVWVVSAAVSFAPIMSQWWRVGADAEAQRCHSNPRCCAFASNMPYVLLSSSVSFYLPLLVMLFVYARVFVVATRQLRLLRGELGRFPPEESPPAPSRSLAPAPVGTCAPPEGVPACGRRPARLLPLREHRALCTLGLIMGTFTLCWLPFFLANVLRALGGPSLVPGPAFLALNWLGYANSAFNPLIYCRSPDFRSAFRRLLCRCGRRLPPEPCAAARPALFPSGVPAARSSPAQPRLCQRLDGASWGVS
Chain of Human Adrenergic α2A (P08913 whole entry): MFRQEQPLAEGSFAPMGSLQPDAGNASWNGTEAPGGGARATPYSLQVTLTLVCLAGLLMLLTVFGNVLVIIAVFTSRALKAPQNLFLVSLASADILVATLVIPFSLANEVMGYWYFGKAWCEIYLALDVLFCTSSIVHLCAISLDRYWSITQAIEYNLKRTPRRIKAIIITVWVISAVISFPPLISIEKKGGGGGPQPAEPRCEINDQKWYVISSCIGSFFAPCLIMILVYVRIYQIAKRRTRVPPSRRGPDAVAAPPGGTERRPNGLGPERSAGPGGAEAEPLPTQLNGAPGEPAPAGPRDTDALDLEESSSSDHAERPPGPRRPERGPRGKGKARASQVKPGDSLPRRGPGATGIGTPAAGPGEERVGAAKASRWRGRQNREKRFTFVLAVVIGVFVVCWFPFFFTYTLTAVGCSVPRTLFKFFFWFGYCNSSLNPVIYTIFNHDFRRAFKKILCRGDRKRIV
Chain of human serotonin 5-HT2B (P41595 whole entry): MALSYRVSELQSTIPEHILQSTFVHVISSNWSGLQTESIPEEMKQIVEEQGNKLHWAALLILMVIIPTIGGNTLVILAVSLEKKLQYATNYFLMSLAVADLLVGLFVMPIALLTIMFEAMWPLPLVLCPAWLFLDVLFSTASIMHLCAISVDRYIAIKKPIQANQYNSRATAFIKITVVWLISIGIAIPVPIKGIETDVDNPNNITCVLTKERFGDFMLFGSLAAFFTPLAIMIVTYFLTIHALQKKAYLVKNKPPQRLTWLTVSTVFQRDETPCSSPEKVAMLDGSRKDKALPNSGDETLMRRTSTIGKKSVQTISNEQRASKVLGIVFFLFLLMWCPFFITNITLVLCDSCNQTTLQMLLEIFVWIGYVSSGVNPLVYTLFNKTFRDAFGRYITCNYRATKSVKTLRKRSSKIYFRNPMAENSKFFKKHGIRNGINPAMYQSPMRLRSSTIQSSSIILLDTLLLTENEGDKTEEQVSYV
Chain of human serotonin 5-HT2A (P28223 whole entry): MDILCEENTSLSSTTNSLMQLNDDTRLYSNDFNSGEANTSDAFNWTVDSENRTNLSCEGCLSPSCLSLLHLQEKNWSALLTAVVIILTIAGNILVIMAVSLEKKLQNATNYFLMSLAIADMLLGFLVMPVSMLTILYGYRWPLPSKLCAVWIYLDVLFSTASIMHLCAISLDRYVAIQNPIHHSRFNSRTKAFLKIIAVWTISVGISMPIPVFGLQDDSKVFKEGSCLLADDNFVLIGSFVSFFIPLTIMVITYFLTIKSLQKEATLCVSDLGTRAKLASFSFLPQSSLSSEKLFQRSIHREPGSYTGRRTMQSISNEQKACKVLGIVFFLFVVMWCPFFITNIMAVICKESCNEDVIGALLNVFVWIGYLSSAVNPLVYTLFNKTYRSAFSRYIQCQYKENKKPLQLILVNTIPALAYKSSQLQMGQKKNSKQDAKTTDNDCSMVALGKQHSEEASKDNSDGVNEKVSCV
Chain of Human Adrenergic β2 (P07550 whole entry): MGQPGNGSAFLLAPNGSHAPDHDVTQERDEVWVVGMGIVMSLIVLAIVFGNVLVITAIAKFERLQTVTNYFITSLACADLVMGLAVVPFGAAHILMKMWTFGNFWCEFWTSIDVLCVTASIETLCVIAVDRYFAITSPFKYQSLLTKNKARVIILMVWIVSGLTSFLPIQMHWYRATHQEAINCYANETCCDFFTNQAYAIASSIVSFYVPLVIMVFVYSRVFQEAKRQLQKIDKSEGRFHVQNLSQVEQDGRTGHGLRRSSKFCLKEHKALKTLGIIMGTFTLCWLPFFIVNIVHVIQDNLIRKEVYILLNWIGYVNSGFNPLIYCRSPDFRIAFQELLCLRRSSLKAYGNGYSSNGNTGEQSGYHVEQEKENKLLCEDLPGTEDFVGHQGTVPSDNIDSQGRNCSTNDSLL
Chain of Human Orphanin (ORL1) (P41146 whole entry): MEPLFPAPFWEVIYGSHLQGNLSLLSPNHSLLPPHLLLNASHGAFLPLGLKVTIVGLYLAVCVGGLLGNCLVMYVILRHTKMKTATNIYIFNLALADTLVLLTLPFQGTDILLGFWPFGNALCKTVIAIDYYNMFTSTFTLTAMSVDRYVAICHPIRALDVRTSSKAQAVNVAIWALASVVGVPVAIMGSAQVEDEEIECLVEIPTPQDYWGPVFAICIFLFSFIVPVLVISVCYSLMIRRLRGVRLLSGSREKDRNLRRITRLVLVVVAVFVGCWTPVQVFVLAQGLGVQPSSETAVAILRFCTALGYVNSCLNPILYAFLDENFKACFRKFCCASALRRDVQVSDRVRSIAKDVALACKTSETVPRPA
Chain of Human Adrenergic α2C (P18825 whole entry): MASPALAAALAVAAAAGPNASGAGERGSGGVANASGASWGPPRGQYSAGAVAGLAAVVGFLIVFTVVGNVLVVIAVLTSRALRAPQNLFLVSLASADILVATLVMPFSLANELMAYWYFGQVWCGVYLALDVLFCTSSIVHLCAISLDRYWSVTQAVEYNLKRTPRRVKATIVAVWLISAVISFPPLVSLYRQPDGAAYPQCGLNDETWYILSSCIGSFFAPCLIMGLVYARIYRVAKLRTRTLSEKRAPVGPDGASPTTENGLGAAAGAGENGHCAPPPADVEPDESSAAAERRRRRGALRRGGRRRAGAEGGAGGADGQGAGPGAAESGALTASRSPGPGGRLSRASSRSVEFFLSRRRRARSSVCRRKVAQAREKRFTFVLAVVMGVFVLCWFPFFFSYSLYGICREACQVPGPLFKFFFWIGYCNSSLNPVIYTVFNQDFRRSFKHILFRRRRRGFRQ

OC1CCC2(CCN(Cc3ccc(F)cc3)CC2)Nc2ccccc21 (racemic) [Compound 32, 1′-(4-fluorobenzyl)-3,4-dihydrospiro[5H-1-benzazepine-2(1H)-4′-piperidin]-5ol]
IC50 (human serotonin 5-HT2A): > 1000 nM
IC50 (human serotonin 5-HT2B): < 1000 nM
anxiolytic effect in elevated plus-maze (Male rats): tendency towards an anxiolytic effects
MK-801-induced locomotion (Male Wistar rats): caused a reduction
MK-801-induced stereotypies (Male Wistar rats): caused a reduction

O=C1CCC2(CCN(Cc3ccc(F)cc3)CC2)Nc2ccccc21 [Compound 31, 1′-(4-fluorobenzyl)-3,4-dihydrospiro[5H-1-benzazepine-2(1H)-4′-piperidin]-5-one]
inhibition at 10 µM (Human Adrenergic β3): 19%
inhibition at 10 µM (Human Orphanin (ORL1)): 12%
inhibition at 10 µM [1]: 16%
% Inhibition Rat GABAA Benzodiazepine (Central) [2]: 6%
% Inhibition Rat GABAA Agonist Site (Rat GABAA Agonist Site): 13%
% Inhibition Rat GABAB (Rat GABAB): No Inhibition
inhibition at 10 µM [3]: 2%
inhibition at 10 µM (Human Adrenergic β1): 3%
% Inhibition Rat GABAA Transporter (Rat GABAA Transporter): No Inhibition
% Inhibition Rat Glutamate, NMDA (Phencyclidine) [4]: No Inhibition
% Inhibition Rat GABAA Chloride Channel [5]: No Inhibition
inhibition at 10 µM (Human Adrenergic α2C): 2%
% Inhibition Rat Glutamate, NMDA (Polyamine) [6]: 12%
inhibition at 10 µM (Human Adrenergic β2): 15%
% Inhibition Rat Adrenergic α1 (Rat Adrenergic α1): 21%
inhibition at 10 µM (Human Adrenergic α2A): 34%
% Inhibition Rat Glutamate, NMDA (Agonist) [7]: No Inhibition
